Consider 4 molecules from patent EP4644383A1 (Jiangsu Yahong Meditech Co., Ltd., priority 2022, dated 2024).

Some results are limits rather than exact numbers.

Assay [1] deals with Ba/F3-FGFR3-BAIAP2L1 cells. Nature of the assay: Inhibition of proliferation activity of Ba/F3-FGFR3-BAIAP2L1 cells (CellTiter-Glo). As to conditions: for IC50: Ba/F3-FGFR3-BAIAP2L1 cells, 72 hours, CTG, read-out: IC50 (nM) Ba/F3-FGFR3-BAIAP2L1; for Selectivity (X) FGFR1/FGFR3: ratio of IC50 Ba/F3-BCR-FGFR1 to IC50 Ba/F3-FGFR3-BAIAP2L1. It counts as cell-based. Here is the method: The present experiment used CellTiter-Glo® Luminescent Cell Viability Assay (Promega: G7573) kit, which was a homogeneous cell viability detection method and determined the cell viability of cultured cells by quantifying ATP. • ① Ba/F3-BCR-FGFR1 or Ba/F3-FGFR3-BAIAP2L1 cells were cultured in 1640 complete medium (Gibco: 11879020) (10% FBS (Gibco: 10091-148)+1% Pen Strep (Gibco: 15140122)) under the condition of 37°C and 5% CO2. • (2) The cells in logarithmic growth phase were harvested and counted using a […]. The trypan blue exclusion method was used to detect cell viability to ensure the cell viability was above 90%. • ③ The cell density was adjusted using 1640 complete medium, and then, the cells were seeded into a 96-well cell culture plate at 90 µL/well with a total of 2000 cells. • ④ A 10-fold drug solution was prepared starting from a maximum drug concentration of 10 µM and 4-fold serially diluted into10 concentrations. […] The luminescence values were read to collect the data. • ⑩ The data were analyzed using XLFit excel plugin version 5.5.0.5, and fitted with non-linear S-curve regression to obtain the dose-response curves and thus calculate the IC50 values. Y = Bottom + (Top-Bottom)/((1+(IC50/X))^(∧) HillSlope [formula]
(§1) "Top" refers to the maximum response, "Bottom" refers to the minimum response, and "HillSlope" refers to the slope of the curve.
(§2) "Max" represents the average value of the cell control+DMSO, and "Min" represents the average value of the medium control+DMSO.

The target of another assay is T1, FGFR1 (Homo sapiens, UniProt P11362).
T1 construct: cytoplasmic domain [398-822 (terminal) amino acids]; purchased Carna 08-133
Nature of the assay: FGFR1 kinase activity inhibition assay (LanthaScreen TR-FRET). It counts as biochemical. The note with it: FGFR1 kinase, TR-FRET; read-out: IC50 (nM) FGFR1. The method, boiled down: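 Emission ratio 520 nm/495 nm by TR-FRET after stopping reaction with 10 mM EDTA and 60 min incubation at 22°C. Inhibition normalized between no-enzyme (min) and DMSO (max) controls, then fitted to a four-parameter curve (Top, Bottom, HillSlope).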

The test system of a further assay is Ba/F3-BCR-FGFR1 cells. Nature of the assay: Inhibition of proliferation activity of Ba/F3-BCR-FGFR1 cells (CellTiter-Glo). The class given is cell-based. As to conditions: Ba/F3-BCR-FGFR1 cells, 72 hours, CTG; read-out: IC50 (nM) Ba/F3-BCR-FGFR1. Here is the method:
The present experiment used CellTiter-Glo® Luminescent Cell Viability Assay (Promega: G7573) kit, which was a homogeneous cell viability detection method and determined the cell viability of cultured cells by quantifying ATP. • ① Ba/F3-BCR-FGFR1 or Ba/F3-FGFR3-BAIAP2L1 cells were cultured in 1640 complete medium (Gibco: 11879020) (10% FBS (Gibco: 10091-148)+1% Pen Strep (Gibco: 15140122)) under the condition of 37°C and 5% CO2. • (2) The cells in logarithmic growth phase were harvested and counted using a […]. The trypan blue exclusion method was used to detect cell viability to ensure the cell viability was above 90%. • ③ The cell density was adjusted using 1640 complete medium, and then, the cells were seeded into a 96-well cell culture plate at 90 µL/well with a total of 2000 cells. • ④ A 10-fold drug solution was prepared starting from a maximum drug concentration of 10 µM and 4-fold serially diluted into10 concentrations. Then, 10 µL of each of the serially diluted compounds was transferred to the corresponding experimental wells of a 96-well cell plate, with two replicates for each drug concentration. • ⑤ The 96-well plate with the cells that had been treated with the drugs was placed under the condition of 37°C and 5% CO2 to be further cultured for 72 hours, and then analyzed by CTG. • ⑥ The CTG reagent was melted and the cell plate was equilibrated to room temperature for 30 minutes. • ⑦ 50 µL of the CTG solution was added to each well. • ⑧ The cell plate was shaken on an orbital shaker for 5 minutes to lyse the cells. • ⑨ The cell plate was placed at room temperature for 20 minutes to stabilize the luminescence signal. The luminescence values were read to collect the data. • ⑩ The data were analyzed using XLFit excel plugin version 5.5.0.5, and fitted with non-linear S-curve regression to obtain the dose-response curves and thus calculate the IC50 values. Y = Bottom + (Top-Bottom)/((1+(IC50/X))^(∧) HillSlope [formula]
as §1, §2

The next assay deals with T2, FGFR3 (Homo sapiens, UniProt P22607).
T2 construct: FGFR3's cytoplasmic domain [436-806 (terminal) amino acids]; purchased Carna 08-135
Briefly: FGFR3 kinase activity inhibition assay (LanthaScreen TR-FRET). The note with it: for IC50: FGFR3 kinase, TR-FRET, read-out: IC50 (nM) FGFR3; for Selectivity (X) FGFR1/FGFR3: ratio of IC50 FGFR1/FGFR3, selectivity towards FGFR3. It counts as biochemical. In short, it runs like this:
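Read-out is TR-FRET, with the 520 nm/495 nm emission ratio normalised to DMSO (max) and enzyme-free (min) controls. Enzyme was the FGFR3 cytoplasmic domain, residues 436-806. EDTA (10 mM) stopped the reaction, followed by 60 min at 22 °C before reading.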

T2 sequence (P22607 436-806): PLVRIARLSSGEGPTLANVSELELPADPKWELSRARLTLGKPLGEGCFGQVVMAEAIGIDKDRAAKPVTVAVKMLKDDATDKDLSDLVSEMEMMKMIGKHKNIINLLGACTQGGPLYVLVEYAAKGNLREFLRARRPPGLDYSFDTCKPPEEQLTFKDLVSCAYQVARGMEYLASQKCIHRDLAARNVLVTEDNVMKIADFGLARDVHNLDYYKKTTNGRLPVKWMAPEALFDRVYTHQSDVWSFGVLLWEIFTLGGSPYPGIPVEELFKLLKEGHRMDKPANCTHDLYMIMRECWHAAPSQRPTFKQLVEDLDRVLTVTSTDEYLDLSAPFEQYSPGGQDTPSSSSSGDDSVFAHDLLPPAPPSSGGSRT
T1 sequence (P11362 398-822): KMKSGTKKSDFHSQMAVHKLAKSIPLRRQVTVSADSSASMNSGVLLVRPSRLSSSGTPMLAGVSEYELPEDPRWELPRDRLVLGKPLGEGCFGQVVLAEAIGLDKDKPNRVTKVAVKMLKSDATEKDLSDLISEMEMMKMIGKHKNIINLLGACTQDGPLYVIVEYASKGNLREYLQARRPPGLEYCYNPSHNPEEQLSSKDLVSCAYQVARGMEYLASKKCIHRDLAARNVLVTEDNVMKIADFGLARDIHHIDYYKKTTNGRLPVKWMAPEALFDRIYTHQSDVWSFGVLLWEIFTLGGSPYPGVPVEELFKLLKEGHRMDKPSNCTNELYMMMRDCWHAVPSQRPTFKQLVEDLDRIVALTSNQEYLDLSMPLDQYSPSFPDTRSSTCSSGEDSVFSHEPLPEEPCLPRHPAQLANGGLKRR

In the case of “5-(1-((7-fluoro-3-(1-methyl-1H-pyrazol-4-yl)-1H-indazol-5-yl)oxy)ethyl)-6-methylquinoline [Example 100]”, the IC50 in assay [1] was 26.8 nM; at FGFR1 it was 10 to 100 nM; in the assay on Ba/F3-BCR-FGFR1 cells it was 1150 nM; on FGFR3, 1 to 10 nM. Further, the “Selectivity (X) FGFR1/FGFR3” value at FGFR3 was “A (A represents 1 ≤ multiple X<20)”.
`CC(Oc1ccc2[nH]nc(-c3cnn(C)c3)c2c1)c1cccc2ncnn12` (centres unmarked) [Example 96, 5-(1-((3-(1-methyl-1H-pyrazol-4-yl)-1H-indazol-5-yl)oxy)ethyl)-[1,2,4]triazolo[1,5-a]pyridine]: the IC50 in assay [1] was 11.8 nM; at FGFR1 it was 10 to 100 nM; in the assay with Ba/F3-BCR-FGFR1 cells it was 430 nM; at FGFR3, 1 to 10 nM. Moreover, the “Selectivity (X) FGFR1/FGFR3” value in assay [1] is given as 37 X; at FGFR3 it was “A (A represents 1 ≤ multiple X<20)”.
Regarding `CC(Oc1ccc2[nH]nc(-c3cnn(C)c3)c2c1)c1cccc2ncc(F)cc12` (centres unmarked) [Example 98, 3-fluoro-5-(1-((3-(1-methyl-1H-pyrazol-4-yl)-1H-indazol-5-yl)oxy)ethyl)qu inoline], the IC50 in assay [1] was 47.6 nM; at FGFR1, over 100 nM; in the assay with Ba/F3-BCR-FGFR1 cells it was 2140 nM; on FGFR3, 10 to 100 nM. In addition, the “Selectivity (X) FGFR1/FGFR3” value in assay [1] is 45 X; at FGFR3, “A (A represents 1 ≤ multiple X<20)”.
In the case of `CC(Oc1ccc2[nH]nc(-c3cnn(C)c3)c2c1)c1cccc2ncncc12` (centres unmarked) [Example 99, 5-(1-((3-(1-methyl-1H-pyrazol-4-yl)-1H-indazol-5-yl)oxy)ethyl)qu inazoline], the IC50 in assay [1] was 41.8 nM; on FGFR1, over 100 nM; in the assay with Ba/F3-BCR-FGFR1 cells, 1760 nM; at FGFR3, 10 to 100 nM. In addition, the “Selectivity (X) FGFR1/FGFR3” value is recorded as 42 X in assay [1] and “A (A represents 1 ≤ multiple X<20)” at FGFR3.
